# Laboratory results reported in PMC7906020, “Trp-Containing Antibacterial Peptides Impair Quorum Sensing and Biofilm Development in Multidrug-Resistant Pseudomonas aeruginosa and Exhibit Synergistic Effects With Antibiotics” (Frontiers in Microbiology, 2021).
# Several values for one entry are separate records, joined by “and”; a condition that tells them apart may be missing. Identical values can stand only once. Peptide text beside a SMILES is read from it.
# Key:
# MRPA0108 biofilms = assay: Confocal laser scanning microscopy of biofilms (LIVE/DEAD staining); assay type: cell-based, Pseudomonas aeruginosa; details: 24 h; for percentage of dead/live cells in biofilm: SYTO9/PI, control 8.7%
# Description: Biofilms of MRPA0108 were visualized by confocal microscopy. Mid-log growth-phase bacteria were diluted to 1 × 10^7 CFU/ml. […] LB liquid medium and erythromycin were used as negative and positive controls, respectively. After incubation, the supernatant was removed, and the slides were washed and stained in a dark environment for 30 min using a LIVE/DEAD BacLight^TM Bacterial Viability Kit (Invitrogen, Life Technologies, Shanghai, China). The slides were washed three times and imaged with a confocal laser scanning microscope (LSM 710, Carl Zeiss, Germany) with excitation/emission wavelengths of 480/500 and 490/635 nm for SYTO9 and propidium iodide (PI), respectively. SYTO9 was used to indicate live bacteria, and PI was used to mark dead bacteria.
# [1] = system: β-lactamase activity in MRPA0108 cells; assay: β-Lactamase activity assay (nitrocefin kit) in treated cells; assay type: cell-based, Pseudomonas aeruginosa; details: compared to control
# Description: β-lactamase activity was measured by using a β-lactamase assay kit (YIASEN Biotech Co., Ltd., Shanghai, China) according to the manufacturer’s instructions. Briefly, mid-log growth-phase bacteria were diluted to 1 × 10^8 CFU/ml and treated with I1W or L12W at concentrations ranging from 3.13 to 50 μM for 12 h at 37°C. After induction, the cultures were harvested by centrifugation at 5,000 rpm at 4°C, washed three times with PBS buffer (pH 7.2), and then resuspended in the same buffer. The cells were sonicated on ice for 15 min, and the cell lysates containing β-lactamase were collected by centrifugation at 12,000 rpm for 30 min at 4°C. Fifty microliters of the prepared β-lactamase-containing lysates was mixed with 50 μl of assay buffer containing nitrocefin and reacted at room temperature in a dark environment for 20 min. Nitrocefin hydrolysis was measured spectrophotometrically at 490 nm. Concurrently, the total protein content was determined with a Bradford assay using the same supernatant. One milliunit of β-lactamase is defined as 1 nanomole of nitrocefin hydrolyzed per minute per microgram of protein.
# [2] = system: alginate production in MRPA0108; assay: Alginate determination, H2SO4-carbazole method; assay type: cell-based, Pseudomonas aeruginosa; details: OD 530 nm
# Description: (§1) Exopolysaccharides were determined using the phenol-H2SO4 method. Briefly, after incubation, the cultures were centrifuged at 10,000 rpm for 15 min, and the pellets were resuspended in high-salt buffer (10 mM KPO4, 5 mM NaCl, 2.5 mM MgSO4, pH 7.0), followed by recentrifugation at 10,000 rpm for 30 min. The resulting supernatant was mixed with three volumes of chilled ethanol (100%) and incubated overnight at 4°C. The precipitated exopolysaccharide was added to a mixture containing cold phenol and H2SO4, and the absorbance of the solution was measured at 490 nm. Alginate content was determined using the H2SO4-carbazole method. Briefly, after incubation, the precooled cultures were mixed with an H2SO4 solution (4:1) and vortexed in ice water, and then 0.2% carbazole dissolved in ethanol was added. The mixture was revortexed and incubated at 55°C for 30 min, and the OD 530 nm was measured.
# [3] = system: exopolysaccharide production in MRPA0108; assay: Exopolysaccharide determination, phenol-H2SO4 method; assay type: cell-based, Pseudomonas aeruginosa; details: phenol-H2SO4, 490 nm
# Description: as §1
# [4] = cited from earlier work
# Source text: Supplement Table_1.docx, table 1: Table S1 Biological characteristics and antibacterial activities of the Trp-containing antimicrobial peptides (32) | column: Hemolysis (μM)
# MRPA0108 strain = details: previous study, ref Han et al., 2020; cited from earlier work
# Source text: Supplement Table_1.docx, table 1: Table S1 Biological characteristics and antibacterial activities of the Trp-containing antimicrobial peptides (32) | column: MIC(μM)
smiles,measurement,setting,value
CC[C@H](C)[C@H](NC(=O)[C@H](CCCCN)NC(=O)[C@H](CO)NC(=O)[C@H](CC(C)C)NC(=O)[C@@H](NC(=O)[C@H](CCCCN)NC(=O)[C@H](CCCCN)NC(=O)[C@@H](N)Cc1c[nH]c2ccccc12)[C@@H](C)CC)C(=O)N[C@@H](CCCCN)C(=O)N[C@@H](CCCCN)C(=O)N[C@@H](CC(C)C)C(=O)N[C@@H](CC(C)C)C(=O)N[C@@H](CCCCN)C(N)=O [I1W] (H-WKKILSKIKKLLK-NH2; N-terminus and C-terminus assumed),average biofilm thickness,"MRPA0108 biofilms; after treatment with low concentrations of peptide (1 × MIC or 2 × MIC), 37°C, control biofilm 6 μm",1.5–2.5 μm and 1.5 μm
same,percentage of dead/live cells in biofilm,MRPA0108 biofilms; peptide at 1 × MIC,29.9%
same,percentage of dead/live cells in biofilm,MRPA0108 biofilms; peptide at 2 × MIC,47.9%
same,"effect on β-lactamase activity, peptide alone",[1]; peptide alone at concentrations greater than 12.5 μM,reduced β-lactamase activity
same,"effect on β-lactamase activity, peptide alone",[1]; peptide alone at low concentrations,no effect on β-lactamase activity
same,inhibition of alginate production,[2]; peptide at 1/4 × MIC,53%
same,inhibition of alginate production,[2]; peptide at 1 × MIC,74%
same,reduction of exopolysaccharide production,"[3]; peptide at 1/4 × MIC, overnight 37°C",26.3%
same,reduction of exopolysaccharide production,[3]; peptide at 1 × MIC,67.3%
same,reduction of exopolysaccharide production,[3]; peptide concentration increased onefold from 1/4 × MIC,42.6%
same,Hemolysis,[4],> 500 µM
same,MIC,MRPA0108 strain,6.25 µM
